33 molecules from patent publication US12358915B2, “METTL3 inhibitory compounds” (STORM THERAPEUTICS LTD., priority 2019, dated 2025) can be followed below.

Structures are written as SMILES. Structures can show the parent of a compound that is named as a salt.

The target in one experiment is T1, METTL3/14 (Homo sapiens, UniProt Q86U44).
T1 construct: The enzyme used was full-length his-tagged METTL3; His; made in house
T1 sequence (Q86U44 whole entry): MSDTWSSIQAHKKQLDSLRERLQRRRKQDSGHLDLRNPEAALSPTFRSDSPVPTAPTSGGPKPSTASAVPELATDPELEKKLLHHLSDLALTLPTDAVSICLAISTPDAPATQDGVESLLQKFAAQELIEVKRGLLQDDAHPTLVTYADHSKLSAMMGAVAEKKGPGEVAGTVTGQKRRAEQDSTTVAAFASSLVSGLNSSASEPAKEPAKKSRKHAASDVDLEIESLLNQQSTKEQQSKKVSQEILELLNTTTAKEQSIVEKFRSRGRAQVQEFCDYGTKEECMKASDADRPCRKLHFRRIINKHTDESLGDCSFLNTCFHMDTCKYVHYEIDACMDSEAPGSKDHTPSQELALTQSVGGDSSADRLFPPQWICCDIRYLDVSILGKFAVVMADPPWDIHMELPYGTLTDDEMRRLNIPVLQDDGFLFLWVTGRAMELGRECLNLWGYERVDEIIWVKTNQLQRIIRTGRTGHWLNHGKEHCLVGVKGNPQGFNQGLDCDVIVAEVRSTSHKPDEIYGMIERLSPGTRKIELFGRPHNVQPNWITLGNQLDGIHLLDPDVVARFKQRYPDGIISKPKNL
T1 sequence (Q9HCE5 whole entry partner): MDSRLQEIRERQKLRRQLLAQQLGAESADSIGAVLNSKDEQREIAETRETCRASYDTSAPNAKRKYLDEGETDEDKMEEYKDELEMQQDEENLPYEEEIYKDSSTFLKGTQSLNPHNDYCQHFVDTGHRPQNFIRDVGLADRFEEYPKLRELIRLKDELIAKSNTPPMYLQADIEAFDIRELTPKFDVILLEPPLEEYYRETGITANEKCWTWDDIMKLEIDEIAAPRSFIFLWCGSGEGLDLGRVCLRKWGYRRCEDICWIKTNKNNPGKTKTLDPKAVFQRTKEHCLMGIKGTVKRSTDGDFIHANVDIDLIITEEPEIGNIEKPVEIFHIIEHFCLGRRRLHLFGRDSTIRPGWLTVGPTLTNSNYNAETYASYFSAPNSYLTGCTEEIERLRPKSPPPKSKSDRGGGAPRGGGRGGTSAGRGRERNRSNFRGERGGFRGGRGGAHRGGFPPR
The experiment can be described thus: METTL3/14 methyltransferase assay (METTL3_14 RFMS, RapidFire mass spectrometry).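 Also: recombinant His-tagged METTL3 with FLAG-tagged METTL14 from baculovirus, SAH product quantified by mass spectrometry against isotope-labelled internal standards, 60 min at room temperature, scaled between no-RNA and DMSO-only wells.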 The experiment is classed as biochemical. As to conditions: 5 nM METTL3/14, 0.2 μM RNA substrate, 0.5 μM SAM; lower limit of the assay IC50=5 nM; Compounds 1-62; read-out: METTL3_14 RFMS IC50.
What is called IC50 is the concentration needed to halve the response being measured. `CNCc1ccc2nc(CNC(=O)c3cccc4[nH]ncc34)cn2c1` [Compound 44, N-({6-[(methylamino)methyl]imidazo[1,2-a]pyridin-2-yl}methyl)-1H-indazole-4-carboxamide dihydrochloride]: the IC50 came out at 5050 nM. As for `O=C(NCc1cn2cc(CNCCO)ccc2n1)c1cccc2[nH]ncc12` [Compound 45], the IC50 was 2580 nM. For `O=C(NCc1cn2cc(CNCC(F)(F)F)ccc2n1)c1cccc2[nH]ncc12` [Compound 46, N-[(6-{[(2,2,2-trifluoroethyl)amino]methyl}imidazo[1,2-a]pyridin-yl)methyl]-1H-indazole-4-carboxamide], the IC50 was 2210 nM. On the same count and under the same terms, under `CC(O)c1ccc2nc(CNC(=O)c3cccc4[nH]ncc34)cn2c1` (centres unmarked) [Compound 47, N-{[6-(1-hydroxyethyl)imidazo[1,2-a]pyridin-2-yl]methyl}-1H-indazole-4-carboxamide] stands 3980 nM; under `O=C(NCc1cn2cc(C(O)c3ccccc3)ccc2n1)c1cccc2[nH]ncc12` (centres unmarked) [Compound 48, N-({6-[hydroxy(phenyl)methyl]imidazo [1,2-a]pyridin-2-yl}methyl)-1H-indazole-4-carboxamide], 2040 nM; under `NCc1ccc2nc(CNC(=O)c3cc(=O)n4ccccc4n3)cn2c1` [Compound 50, N-{[6-(aminomethyl)imidazo[1,2-a]pyridin-2-yl]methyl}-4-oxo-4H-pyrido[1,2-a]pyrimidine-2-carboxamide], 272 nM. For `O=C(NCc1cn2cc(CNCC(F)(F)F)ccc2n1)c1cc(=O)n2ccccc2n1` [Compound 51, 4-oxo-N-[(6-{[(2,2,2-trifluoroethyl)amino]methyl}imidazo[1,2-a]pyridin-2-yl)methyl]-4H-pyrido[1,2-a]pyrimidine-2-carboxamide], the IC50 amounted to 1220 nM. Same read-out and setting: under `O=C(NCc1cn2cc(CNCCO)ccc2n1)c1cc(=O)n2ccccc2n1` [Compound 52, N-[(6-{[(2-hydroxyethyl)amino]methyl}imidazo[1,2-a]pyridin-2-yl)methyl]-4-oxo-4H-pyrido[1,2-a]pyrimidine-2-carboxamide] stands 267 nM; under `O=C(NCc1cn2cc(CNCCc3ccccc3)ccc2n1)c1cc(=O)n2ccccc2n1` [Compound 53, 4-oxo-N-[(6-{[(2-phenylethyl)amino]methyl}imidazo[1,2-a]pyridin-2-yl)methyl]-4H-pyrido[1,2-a]pyrimidine-2-carboxamide], 38 nM. For the molecule `O=C(NCc1cn2cc(CNCCCc3ccccc3)ccc2n1)c1cc(=O)n2ccccc2n1` [Compound 55, 4-oxo-N-[(6-{[(3-phenylpropyl)amino]methyl}imidazo[1,2-a]pyridin-2-yl)methyl]-4H-pyrido[1,2-a]pyrimidine-2-carboxamide], the IC50 came out at 87 nM.

For the molecule `O=C(NCc1cn2cc(C(O)c3ccccc3)ccc2n1)c1cc(=O)n2ccccc2n1` (centres unmarked) [Compound 56, N-({6-[hydroxy(phenyl)methyl]imidazo[1,2-a]pyridin-2-yl}methyl)-4-oxo-4H-pyrido[1,2-a]pyrimidine-2-carboxamide], the IC50 amounted to 945 nM.

As for `CC(O)c1ccc2nc(CNC(=O)c3cc(=O)n4ccccc4n3)cn2c1` (centres unmarked) [Compound 57, N-{[6-(1-hydroxyethyl)imidazo[1,2-a]pyridin-2-yl]methyl}-oxo-4H-pyrido[1,2-a]pyrimidine-2-carboxamide], the IC50 was 702 nM.

Take `C=Cc1ccc2nc(CNC(=O)c3cc(=O)n4ccccc4n3)cn2c1` [Compound 58, N-({6-ethenylimidazo[1,2-a]pyridin-2-yl}methyl)-4-oxo-4H-pyrido[1,2-a]pyrimidine-2-carboxamide]: the half-maximal inhibitory concentration (IC50) turned out to be 299 nM. Still for that read-out and setting: to `O=C(NCc1cn2cc(C3CC3)ccc2n1)c1cc(=O)n2ccccc2n1` [Compound 59, N-({6-cyclopropylimidazo[1,2-a]pyridin-2-yl}methyl)-4-oxo-4H-pyrido[1,2-a]pyrimidine-2-carboxamide] belongs 939 nM. As for `C=Cc1ccn2cc(CNC(=O)c3cc(=O)n4ccccc4n3)nc2c1` [Compound 60, N-({7-ethenylimidazo[1,2-a]pyridin-2-yl}methyl)-4-oxo-4H-pyrido[1,2-a]pyrimidine-2-carboxamide], the IC50 was 700 nM. On the same count and under the same terms, under `O=C(NCc1cn2cc(CO)ccc2n1)c1cc(=O)n2ccccc2n1` [Compound 61, N-{[6-(hydroxymethyl)imidazo[1,2-a]pyridin-2-yl]methyl}-4-oxo-4H-pyrido[1,2-a]pyrimidine-2-carboxamide] stands 695 nM; under `Cc1ccc2nc(Cc3nnc(-c4cccc5[nH]ncc45)o3)cn2c1` [Compound 62, 2-(1H-indazol-4-yl)-5-[(6-methylimidazo[1,2-a]pyridin-2-yl)methyl]-1,3,4-oxadiazole], 8760 nM.

The same experiment, now with this note: 5 nM METTL3/14, 0.2 μM RNA substrate, 0.5 μM SAM; lower limit of the assay IC50=5 nM; Compounds 63-265; read-out: METTL3_14 RFMS IC50.
With `NCCc1ccc2nc(CNC(=O)c3cc(=O)n4ccccc4n3)cn2c1` [Compound 63, N-{[6-(2-aminoethyl)imidazo[1,2-a]pyridin-2-yl]methyl}-4-oxo-4H-pyrido[1,2-a]pyrimidine-2-carboxamide], the IC50 came out at 299 nM.

With `Cc1ccc2nc(CNC(=O)c3cc(=O)n4c(n3)CCCC4)cn2c1` [Compound 64, N-({6-methylimidazo [1,2-a]pyridin-2-yl}methyl)-4-oxo-4H,6H,7H,8H, 9H-pyrido[1,2-a]pyrimidine-2-carboxamide], the IC50 stood at 7330 nM. For the molecule `O=C(NCc1cn2cc(C(F)(F)F)ccc2n1)c1cc(=O)n2ccccc2n1` [Compound 65, 4-oxo-N-{[6-(trifluoromethyl)imidazo[1,2-a]pyridin-2-yl]methyl}-4H-pyrido[1,2-a]pyrimidine-2-carboxamide], the IC50 came to 6600 nM. Still for that read-out and setting: under `Cc1ccc2nc(Cc3nnc(-c4cccc5[nH]ncc45)s3)cn2c1` [Compound 66, 4-[5-({6-methylimidazo[1,2-a]pyridin-2-yl}methyl)-1,3,4-thiadiazol-2-yl]-1H-indazole] stands 1350 nM; under `CC(C)(C)OC(=O)NCCc1ccc2nc(CNC(=O)c3cc(=O)n4ccccc4n3)cn2c1` [Compound 67, tert-butyl N-(2-{2-[({4-oxo-4H-pyrido[1,2-a]pyrimidin-2-yl}formamido)methyl]imidazo [1,2-a]pyridin-6-yllethyl) carbamate], 8140 nM. On the same count and under the same terms, to `O=C(NCc1ccccc1)c1ccc2nc(CNC(=O)c3cc(=O)n4ccccc4n3)cn2c1` [Compound 68, N-benzyl-2-[({4-oxo-4H-pyrido[1,2-a]pyrimidin-2-yl}formamido)methyl]imidazo [1,2-a]pyridine-6-carboxamide] belongs 5090 nM. Regarding `Cc1ccc2nc(Cn3cc(-c4cccc5[nH]ncc45)nn3)cn2c1` [Compound 69, 4-[1-({6-methylimidazo[1,2-a]pyridin-2-yl}methyl)-1H-1,2,3-triazol-4-yl]-1H-indazole], the IC50 turned out to be 1340 nM.

Take `O=C(NCc1cn2cc(CNCc3cccnc3)ccc2n1)c1cc(=O)n2ccccc2n1` [Compound 70, 4-oxo-N-{[6-({[(pyridin-3-yl)methyl]amino}methyl)imidazo [1,2-a]pyridin-2-yl]methyl}-4H-pyrido[1,2-a]pyrimidine-2-carboxamide]: the IC50 came to 143 nM. Same read-out and setting: under `COc1ccc(CNCc2ccc3nc(CNC(=O)c4cc(=O)n5ccccc5n4)cn3c2)cc1` [Compound 71, N-{[6-({[(4-methoxyphenyl)methyl]amino}methyl)imidazo [1,2-a]pyridin-2-yl]methyl}-4-oxo-4H-pyrido [1,2-a]pyrimidine-2-carboxamide] stands 206 nM; under `C[C@@H](NCc1ccc2nc(CNC(=O)c3cc(=O)n4ccccc4n3)cn2c1)c1ccccc1` [Compound 75, 4-oxo-N-{[6-({[(1R)-1-phenylethyl]amino}methyl)imidazo[1,2-a]pyridin-2-yl]methyl}-4H-pyrido[1,2-a]pyrimidine-2-carboxamide], 48.1 nM. As for `C[C@H](NCc1ccc2nc(CNC(=O)c3cc(=O)n4ccccc4n3)cn2c1)c1ccccc1` [Compound 76, 4-oxo-N-{[6-({[(1S)-1-phenylethyl]amino}methyl)imidazo [1,2-a]pyridin-2-yl]methyl}-4H-pyrido[1,2-a] pyrimidine-2-carboxamide], the IC50 was found to be 30 nM. Same read-out and setting: to `O=C(NCc1cn2cc(CNCc3ccccc3F)ccc2n1)c1cc(=O)n2ccccc2n1` [Compound 77, N-{[6-({[(2-fluorophenyl)methyl]amino}methyl)imidazo [1,2-a]pyridin-2-yl]methyl}-4-oxo-4H-pyrido[1,2-a]pyrimidine-2-carboxamide] belongs 84 nM; to `O=C(NCc1cn2cc(CNCc3cccc(F)c3)ccc2n1)c1cc(=O)n2ccccc2n1` [Compound 79, N-{[6-({[(3-fluorophenyl)methyl]amino}methyl)imidazo[1,2-a]pyridin-2-yl]methyl}-4-oxo-4H-pyrido [1,2-a]pyrimidine-2-carboxamide], 62.5 nM. For the molecule `O=C(NCc1cn2cc(CNCc3ccc(F)cc3)ccc2n1)c1cc(=O)n2ccccc2n1` [Compound 80, N-{[6-({[(4-fluorophenyl)methyl]amino}methyl)imidazo [1,2-a]pyridin-2-yl]methyl}-4-oxo-4H-pyrido[1,2-a]pyrimidine-2-carboxamide], the IC50 came to 16.5 nM.

Still in this experiment, the particulars now being: primary enzyme screen, inhibition of RNA methyltransferase activity; lower limit of the assay is IC50=5 nM; read-out: IC50.
For `O=C(NCc1cn2cc(CNCc3ccccc3)ccc2n1)c1cc(=O)n2ccccc2n1` [Compound 54, N-({6-[(benzylamino)methyl]imidazo[1,2-a]pyridin-2-yl}methyl)-4-oxo-4H-pyrido[1,2-a]pyrimidine-2-carboxamide], the IC50 was 16 nM.

Staying with this experiment, now noted: read-out: IC50.
For the molecule `O=C(NCc1cn2cc(CNCCc3ccccc3)ccc2n1)c1cc(=O)n2ccccc2n1` [Compound 53, 4-oxo-N-[(6-{[(2-phenylethyl)amino]methyl}imidazo[1,2-a]pyridin-2-yl)methyl]-4H-pyrido[1,2-a]pyrimidine-2-carboxamide], the IC50 was determined as 27 nM. For the molecule `O=C(NCc1cn2cc(CNCCCc3ccccc3)ccc2n1)c1cc(=O)n2ccccc2n1` [Compound 55, 4-oxo-N-[(6-{[(3-phenylpropyl)amino]methyl}imidazo[1,2-a]pyridin-2-yl)methyl]-4H-pyrido[1,2-a]pyrimidine-2-carboxamide], the IC50 was found to be 66 nM.

The same experiment, now with this note: read-out: METTL3_14 RFMS IC50.
For `O=C(NCc1cn2cc(CNCc3ccc(Cl)cc3)ccc2n1)c1cc(=O)n2ccccc2n1` [Compound 73, N-{[6-({[(4-chlorophenyl)methyl]amino}methyl)imidazo [1,2-a]pyridin-2-yl]methyl}-4-oxo-4H-pyrido [1,2-a]pyrimidine-2-carboxamide], the IC50 was 64.9 nM.
